Results reported in article PMC11568214, “The impact of 9-azaglycophymine and phenylguanidine derivatives on the proliferation of various breast cancer cell lines in vitro and in vivo” (Scientific Reports, 2024).

Columns and labels:
Type in all cases: cell-based, human
Set-up in all cases: key: ↑: induction; ↓: inhibition; ↔: no effect
[1] = tested on: BT-474; experiment: NO production, DAF-FM staining, flow cytometry; conditions: BT-474, IC50 for 72 h
Description: (§1) Afterwards, the medium was discarded and the cells were stained with DAF-FM (5 µM) in RPMI1640 with 10% (v/v) FCS for 1 h at 37 °C. The stain was completed by additional incubation for 15 min with serum-free medium. The cells were then detached, re-suspended in PBS and analyzed by flow cytometry.

[2] = tested on: HCC1937; experiment: NO production, DAF-FM staining, flow cytometry; conditions: HCC1937, IC50 for 72 h
Description: as §1

[3] = tested on: MCF-7; experiment: NO production, DAF-FM staining, flow cytometry; conditions: MCF-7, IC50 for 72 h
Description: as §1

[4] = tested on: MDA-MB-468; experiment: NO production, DAF-FM staining, flow cytometry; conditions: MDA-MB-468, IC50 for 72 h
Description: as §1

[5] = tested on: BT-474; experiment: Autophagy induction, acridine orange staining, flow cytometry; conditions: BT-474, IC50 for 72 h
Description: (§2) Cells were seeded in 6-well plates and incubated for 24 h under standard culture conditions. […] For the analyses of autophagy induction, the cell suspension was centrifuged for 3 min at 800 rpm, and the cell pellet was stained with 1 mL of AO working solution (1 µg/mL of AO in growth medium). Cells were incubated for 15 min under standard culture conditions. The cell suspension was centrifuged for 3 min at 800 rpm, and the cell pellet was washed with 1 mL of fresh PBS. Finally, all samples were analyzed by using flow cytometry (FACSAria III, BD Biosciences, New Jersey, USA).

[6] = tested on: HCC1937; experiment: as above; conditions: HCC1937, IC50 for 72 h
Description: as §2

[7] = tested on: MCF-7; experiment: as above; conditions: MCF-7, IC50 for 72 h
Description: as §2

[8] = tested on: MDA-MB-468; experiment: as above; conditions: MDA-MB-468, IC50 for 72 h
Description: as §2

Structure (SMILES): O=c1[nH]c(Nc2ccc([N+](=O)[O-])cc2)nc2ccccc12 [Compound 19, 4′-nitro-9-aza-glycophymine]
- NO [1]: ↑
- NO [2]: ↑
- NO [3]: ↑
- NO [4]: ↔
- Autophagy [5]: ↔
- Autophagy [6]: ↔
- Autophagy [7]: ↔
- Autophagy [8]: ↔
